{
  "source": "patent US11613552B2",
  "about": "“Pharmaceutical agents, compositions, and methods relating thereto” (Alltech, Inc., priority 2017, dated 2023)",
  "key": {"[1]": {"tested_on": "G6pc", "experiment": "QRT-PCR of G6pc mRNA in livers of Lepr^db/db mice", "format": "in vivo, mouse", "conditions": "25 μg selenium/kg ip daily, 52 days (FIG. 9)", "description": "Male Lepr^db/db mice (C57BL/6J strain, purchased from The Jackson Laboratory) at 38-days of age were intraperitoneally injected daily with physiological saline ([…]) containing 0.2% DMSO, Compound #50, or Compound #43 (25 μg selenium equivalent of each compound per kilogram body weight, diluted in the sterile physiological saline) for 52 days. After the treatment, livers were collected and subjected RNA analysis.\nTotal RNA from saline- or selenium compound-treated Lepr^db/db mice was isolated using a Qiagen RNAeasy RNA isolation kit according to the Manufacturer's protocol. Total RNA from cultured cells was isolated using Trizol (Invitrogen) according to the manufacturer's protocol, and then incubated with DNase I to remove any potential contaminating genomic DNA. RNA samples were subjected to real-time PCR (QRT-PCR) analysis using Applied-Bioscience's RT kit and predesigned Taqman probes (Invitrogen), as described previously (Lan et al EMBO J 2003). Data were normalized by Actin B (Actb) mRNA levels in each sample, and are presented as mean±SEM of 3-5 samples."}, "[2]": {"tested_on": "PDK1/AKT/FOXO1", "experiment": "Western blot of PDK1/AKT/FOXO1 in serum-starved HepG2 cells", "format": "cell-based, human", "description": "HepG2 cells were seeded on 6-well plates (7×10^5 cells/well) and cultured in 10% FBS EMEM media for 30 hr. Then these cells were washed twice with PBS to remove residual sera, and serum-starved in plain EMEM media overnight. […]\nAfter the above described treatments, cultured HepG2 and AML-12 cells were rinsed twice with ice-cold PBS and lysed in ice-cold RIPA buffer containing complete proteinase and phosphatase inhibitors (Thermo-Fisher Scientific, Waltham, Mass.) on ice for 30 min. Cell lysates were collected using a cell scraper and transfer pipette, and then centrifuged at 12000×g for 30 min at 4° C. to remove the DNA pellet and obtain the protein extract. Protein levels in the supernatant of these cell lysates were determined using the Pierce Micro-BCA protein assay kit (Thermo Scientific-Piece Biotechnology, Rockford, Ill.) according to the manufacturer's protocol.\nOne hundred micrograms of liver tissue proteins or five micrograms of total proteins from control- and compound(s)-treated HepG2 or AML-12 cells were subjected to SDS-PAGE gel separation and then transferred to PVDF membranes, as described previously (Reddy et al. 2008 Science). Membranes were blocked in a phosphate-buffered saline (PBS) containing 5% (w/v) of bovine serum albumin (Sigma, St. Louis, Mo.) and incubated with specific primary antibodies followed by the incubation with HRP-conjugated anti-mouse or anti-rabbit secondary antibodies (1:5000 dilution, Cell Signaling Inc.). All primary antibodies except Gapdh (Li-COR, Lincoln, Nebr.) were purchased from Cell Signaling Inc. Positive signals on the membrane blots were detected using the Amersham's enhanced chemiluminescence Western Blotting Prime Detection reagents (GE Healthcare Lifescience, Pittsburgh, Pa.). Images of these luminescence signals on the membrane blots were captured using the LI-COR Odyssey Fc Image system (Lincoln, Nebr.). The same membrane blot was stripped and re-blotted with another antibody as described in the GE WB ECL-prime-detection protocol (GE healthcare Lifescience, Pittsburgh, Pa.). Protein band densities in the Western blots were determined using the NIH ImageJ software and then normalized by Gapdh or Actb/ACTB level in each sample. Data are presented as mean±SEM of three samples per each group."}, "[3]": {"experiment": "Serum insulin, ALT and creatinine assays in Lepr^db/db mice", "format": "in vivo, mouse", "conditions": "0.136 mg/kg ip daily", "description": "Male Lepr^db/db mice at 38 days of age were intraperitoneally (ip) injected daily with physiological saline ([…]) containing 0.2% DMSO, and Compound #43 (0.136 mg per kilogram body weight, diluted in sterile physiological saline) for 52 days. Sera from 3-month-old wild-type (non-diabetic) C57 mice were also collected. After the treatments, these serum samples were collected and subjected to insulin, ALT and creatinine assays.\nThe serum levels of insulin, ALT and creatinine were determined using Themo-Fisher Scientific's Insulin Mouse ELISA kit (Cat #EMINS), Sigma's ALT Activity Assay kit (Cat #MAK052), and Abcam's Creatinine Assay kit (Cat #Ab65340) according to the manufacturer's protocol, respectively."}},
  "data": [
    {"smiles": "C[Se]C[C@H]1O[C@@H](n2cnc3c(N)ncnc32)C(OC(C)=O)C1OC(C)=O", "note": "(some centres unmarked) [Compound #43, Adenosine, 5′-Se-methyl-5′-selino-, 2′,3′-diacetate]", "values": [
      {"measurement": "reduction of G6pc mRNA levels in the liver vs saline", "setting": "[1]", "result": "about 56%"},
      {"measurement": "time of peak increase of pPDK1", "setting": "[2]; 600 ppb", "result": "60-90 minutes"},
      {"measurement": "phosphorylated AKT at T308", "setting": "[2]; 600 ppb, 30, 60, 90 minutes and 24 hr (FIG. 13C)", "result": "significant and transient increase of phosphorylated AKT at T308"},
      {"measurement": "phosphorylated FOXO1 at T24", "setting": "[2]; 600 ppb, 90 minutes and longer (FIG. 13E)", "result": "significantly increased"},
      {"measurement": "total AKT protein levels", "setting": "[2]; 600 ppb, all tested time points", "result": "not significantly altered"},
      {"measurement": "total Foxo1 protein levels", "setting": "[2]; 600 ppb, less than 24 hours", "result": "no significant change in total FOXO1 protein levels"},
      {"measurement": "total Foxo1 protein levels", "setting": "[2]; 600 ppb, prolonged treatment 30 hr or 48 hr", "result": "slight but statistically significant decrease of total FOXO1 proteins"},
      {"measurement": "pPDK1 protein level", "setting": "[2]; 600 ppb, serum-free, 30, 60, 90 minutes (FIG. 13B)", "result": "significant and transient increase of pPDK1"},
      {"measurement": "decrease of serum insulin levels", "setting": "[3]; 52 days (FIG. 24A)", "result": "about 80%"},
      {"measurement": "serum ALT levels", "setting": "[3]; 52 days (FIG. 24B)", "result": "significant decrease of serum ALT levels"},
      {"measurement": "serum creatinine levels", "setting": "[3]; 52 days (FIG. 24C)", "result": "no significant change in serum creatinine levels"}
    ]}
  ]
}
